Measured values: patent US20040191297A1, “Carotenoid formulation” (priority 1997, published 2004)
Where “and” joins values, the source holds several entries; their conditions need not be identical. Equal values may be shown once.

Tests used:
[1] = Lycopene content of rat mammary gland; format: in vivo, Fischer 344 rats; conditions: female
Description: (§1) homogenized. […] This hexane extraction procedure was repeated 5-7 times.

[2] = Ten-week MTD feeding study: weight gain and toxicity; format: in vivo
Method: Inbred Fischer F344 males (n=70) and females (n=70) were obtained from Taconic Farms, Germantown, N.Y. At about 35 days of age, all animals were transferred to the experimental room from quarantine. The animals were then allocated into experimental groups using formal randomization methods to ensure that each group contained animals of the same mean weight.
A ten-week pilot study was conducted as described in Table 2 & FIG. 2 to determine the maximal tolerated dose (MTD) for lycopene in both male (colon model) and female (breast model) rats. The choice of dose ranges was based on published values for β-carotene. A mixed carotenoid composition containing 5.7% carotenoids, including 3.7% pure lycopene was suspended in medium chain triglycerides (this composition will be referred to below as the “Lycopene Suspension”). The Lycopene Suspension was incorporated into the AIN-76A diet.
Differences in the lipid content of the various treatment groups were controlled by supplementing their diets with appropriate amounts of Neobee® medium chain triglyceride (Stepan Co., Maywood, N.J.) such that all animals, including controls, received the same amount of dietary fat.
Animal weights were recorded once per week and animal appearance (coat texture) and food avoidance behavior assessed. By concentration,
the maximal tolerated dose is that dose which […] mean body weight loss.

[3] = Concentration of lycopene in rat lung; format: in vivo, Fischer 344 rats
Method: Extraction of lycopene from diet was as follows: A sample of diet containing lycopene was suspended in the injection solvent (Table 4) and homogenized in a polytron homogenizer. Echinenone was added as an internal standard and the mixture centrifuged at 3000 rpm at 4° C. for 15 minutes. The supernatant was decanted and saved and the extraction repeated. The pooled extracts were then dried under N2 gas at 60° C. and the residue dissolved in 0.5 ml injection solvent and then subjected to HPLC analysis. The same method, with minor variations, was used for feces and for lung tissue. The efficiency of lycopene extraction from the diet is shown in Table 6 A&B. At any concentration tested the efficiency ranged from 75% at the highest concentration to 100% for the lowest concentration of lycopene.
as §1

[4] = female rat, Group 1, 1280 in diet
[5] = female rat, Group 2, 512 in diet
[6] = female rat, Group 3, 256 in diet
[7] = female rat, Group 4, 128 in diet
[8] = female rat, Group 5, 51 in diet
[9] = male rat, Group 1, 1280 in diet

Compound: CC(C)=CCC/C(C)=C/C=C/C(C)=C/C=C/C(C)=C/C=C/C=C(C)/C=C/C=C(C)/C=C/C=C(\C)CCC=C(C)C [Lycopene]
- Lycopene content of mammary gland, Median ([1]; Group 1 (1280 mg/kg diet)): 235 ng/g
- Lycopene content of mammary gland, Range ([1]; Group 1 (1280 mg/kg diet)): 232 to 460 ng/g
- Lycopene content of mammary gland, mean ± SD ([1]; Group 1 (1280 mg/kg diet)): 309 ± 131 ng/g
- Lycopene content of mammary gland, Median ([1]; Group 2 (512 mg/kg diet)): 197 ng/g
- Lycopene content of mammary gland, Range ([1]; Group 2 (512 mg/kg diet)): 172 to 231 ng/g
- Lycopene content of mammary gland, mean ± SD ([1]; Group 2 (512 mg/kg diet)): 200 ± 030 ng/g
- Lycopene content of mammary gland, Median ([1]; Group 3 (256 mg/kg diet)): 220 ng/g
- Lycopene content of mammary gland, Range ([1]; Group 3 (256 mg/kg diet)): 139 to 282 ng/g
- Lycopene content of mammary gland, mean ± SD ([1]; Group 3 (256 mg/kg diet)): 215 ± 062 ng/g
- Lycopene content of mammary gland, Median ([1]; Group 4 (128 mg/kg diet)): 217 ng/g
- Lycopene content of mammary gland, Range ([1]; Group 4 (128 mg/kg diet)): 181 to 288 ng/g
- Lycopene content of mammary gland, mean ± SD ([1]; Group 4 (128 mg/kg diet)): 229 ± 054 ng/g
- Lycopene content of mammary gland, Median ([1]; Group 5 (51 mg/kg diet)): 143 ng/g
- Lycopene content of mammary gland, Range ([1]; Group 5 (51 mg/kg diet)): 139 to 239 ng/g
- Lycopene content of mammary gland, mean ± SD ([1]; Group 5 (51 mg/kg diet)): 174 ± 057 ng/g
- toxicity ([2]; F-344 rat, dose range used): no evidence of lycopene toxicity
- difference in weight gains between doses ([2]; analysis of variance for repeated measures): no difference
- weight gain difference, control vs supplemented rats ([2]; end of 10 weeks): ≤ 10%
- effect on food intake or weight gain ([2]; male and female rats, dosage range used): no deleterious effect
- Concentration of lycopene in lung, average [3, 4]: 227 ngs/gm
- Concentration of lycopene in lung, individual [3, 4]: 184 ngs/gm and 270 ngs/gm
- Concentration of lycopene in lung, average [3, 5]: 246 ngs/gm
- Concentration of lycopene in lung, individual [3, 5]: 211 ngs/gm and 280 ngs/gm
- Concentration of lycopene in lung, average [3, 6]: 193 ngs/gm
- Concentration of lycopene in lung, individual [3, 6]: 243 ngs/gm and 142 ngs/gm
- Concentration of lycopene in lung, average [3, 7]: 211 ngs/gm
- Concentration of lycopene in lung, individual [3, 7]: 208 ngs/gm and 214 ngs/gm
- Concentration of lycopene in lung, average [3, 8]: 134 ngs/gm
- Concentration of lycopene in lung, individual [3, 8]: 144 ngs/gm and 124 ngs/gm
- Concentration of lycopene in lung, average [3, 9]: 190 ngs/g
- Concentration of lycopene in lung, individual [3, 9]: 193 ngs/g and 187 ngs/g
- Concentration of lycopene in lung, average ([3]; male rat, Group 2, 512 in diet): 214 ngs/g
- Concentration of lycopene in lung, individual ([3]; male rat, Group 2, 512 in diet): 170 ngs/g and 257 ngs/g
- Concentration of lycopene in lung, average ([3]; male rat, Group 3, 256 in diet): 375 ngs/g
- Concentration of lycopene in lung, individual ([3]; male rat, Group 3, 256 in diet): 325 ngs/g and 424 ngs/g
- Concentration of lycopene in lung, average ([3]; male rat, Group 4, 128 in diet): 201 ngs/g
- Concentration of lycopene in lung, individual ([3]; male rat, Group 4, 128 in diet): 239 ngs/g and 162 ngs/g
- Concentration of lycopene in lung, average ([3]; male rat, Group 5, 51 in diet): 151 ngs/g
- Concentration of lycopene in lung, individual ([3]; male rat, Group 5, 51 in diet): 167 ngs/g and 135 ngs/g
